Common to all, as to conditions: stereoisomer not certain
The nature of data set [1]: RP, Waters CORTECS T3, 100 × 2.1 mm, 2.7 µm, 0.2 mL/min, estimated dead time 1.1 min; A: water + 0.1% formic acid, pH 3; B: methanol + 0.1% formic acid, pH 3; gradient (min/%B) 0/5 5/5 25/95 25.1/100 35/100 35.1/5 45/5.
A short description of data set [2]: RP, Waters ACQUITY UPLC BEH C18, 100 × 2.1 mm, 1.7 µm, 0.2 mL/min, estimated dead time 1.1 min; A: water + 0.025% formic acid + 20 mM ammonium acetate + 0.055% ammonium hydroxide, pH 7; B: methanol; gradient (min/%B) 0/5 5/5 25/100 30/100 30.1/5 35/5.
Data set [3] is described as follows: HILIC, Waters XBridge BEH Amide, 100 × 2.1 mm, 2.5 µm, 0.5 mL/min, estimated dead time 0.44 min; A: water + 0.1% acetic acid + 10 mM ammonium acetate, pH 4; B: 5% water + 95% acetonitrile + 0.1% acetic acid + 10 mM ammonium acetate, pH 4; gradient (min/%B) 0/95 5/95 20/57 25/57 30/95 40/95.
The nature of data set [4]: RP, Waters ACQUITY UPLC BEH C18, 100 × 2.1 mm, 1.7 µm, 0.2 mL/min, estimated dead time 1.1 min; A: water + 0.1% formic acid, pH 3; B: methanol + 0.1% formic acid, pH 3; gradient (min/%B) 0/5 5/5 25/100 30/100 30.1/5 35/5.
Data set [5] in a line: HILIC, Merck SeQuant ZIC-HILIC, 150 × 2.1 mm, 5 µm, 0.75 mL/min, estimated dead time 0.44 min; A: water + 0.1% acetic acid + 10 mM ammonium acetate, pH 4; B: 5% water + 95% acetonitrile + 0.1% acetic acid + 10 mM ammonium acetate, pH 4; gradient (min/%B) 0/95 5/95 20/57 25/57 30/95 40/95.
The nature of data set [6]: RP, Waters ACQUITY UPLC BEH C18, 100 × 2.1 mm, 1.7 µm, 0.1 mL/min, estimated dead time 2.2 min; A: water + 0.1% formic acid, pH 3; B: methanol + 0.1% formic acid, pH 3; gradient (min/%B) 0/5 5/5 25/95 25.1/100 35/100 35.1/5 45/5.
The nature of data set [7]: RP, Waters CORTECS T3, 100 × 2.1 mm, 2.7 µm, 0.2 mL/min, estimated dead time 1.1 min; A: water + 0.1% formic acid, pH 3; B: methanol + 0.1% formic acid, pH 3; gradient (min/%B) 0/0 1/0 6/5 30/100 35/100 35.1/0 40/0.
Data set [8] can be described thus: RP, Waters CORTECS T3, 100 × 2.1 mm, 2.7 µm, 0.15 mL/min, estimated dead time 1.5 min; A: water + 0.1% formic acid, pH 3; B: methanol + 0.1% formic acid, pH 3; gradient (min/%B) 0/5 5/5 25/95 25.1/100 35/100 35.1/5 45/5.
Data set [9] in a line: RP, Waters CORTECS T3, 100 × 2.1 mm, 2.7 µm, 0.3 mL/min, estimated dead time 0.73 min; A: water + 0.1% formic acid, pH 3; B: methanol + 0.1% formic acid, pH 3; gradient (min/%B) 0/0 1/0 6/5 30/100 35/100 35.1/0 40/0.
Data set [10] is described as follows: HILIC, Thermo Scientific Accucore HILIC, 100 × 2.1 mm, 2.6 µm, 0.5 mL/min, estimated dead time 0.44 min; A: water + 0.1% formic acid + 10 mM ammonium formate, pH 3; B: 5% water + 95% acetonitrile + 0.1% formic acid + 10 mM ammonium formate, pH 3; gradient (min/%B) 0/95 5/95 20/57 25/57 30/95 40/95.
Data set [11] in a line: RP, Waters CORTECS T3, 100 × 2.1 mm, 2.7 µm, 0.25 mL/min, estimated dead time 0.88 min; A: water + 0.1% formic acid, pH 3; B: methanol + 0.1% formic acid, pH 3; gradient (min/%B) 0/5 5/5 25/95 25.1/100 35/100 35.1/5 45/5.
Data set [12] can be described thus: HILIC, Merck SeQuant ZIC-HILIC, 150 × 2.1 mm, 5 µm, 0.75 mL/min, estimated dead time 0.44 min; A: water + 10 mM ammonium formate, pH 6; B: 5% water + 95% acetonitrile + 10 mM ammonium formate, pH 6; gradient (min/%B) 0/95 5/95 20/57 25/57 30/95 40/95.
A short description of data set [13]: RP, Waters CORTECS T3, 100 × 2.1 mm, 2.7 µm, 0.3 mL/min, estimated dead time 0.73 min; A: water + 0.1% formic acid, pH 3; B: methanol + 0.1% formic acid, pH 3; gradient (min/%B) 0/0 5/0 25/100 30/100 30.1/0 35/0.
The nature of data set [14]: RP, Waters CORTECS T3, 100 × 2.1 mm, 2.7 µm, 0.3 mL/min, estimated dead time 0.73 min; A: water + 0.1% formic acid, pH 3; B: methanol + 0.1% formic acid, pH 3; gradient (min/%B) 0/5 5/5 25/100 30/100 30.1/5 35/5.
The nature of data set [15]: RP, Waters CORTECS T3, 100 × 2.1 mm, 2.7 µm, 0.15 mL/min, estimated dead time 1.5 min; A: water + 0.1% formic acid, pH 3; B: methanol + 0.1% formic acid, pH 3; gradient (min/%B) 0/0 1/0 6/5 30/100 35/100 35.1/0 40/0.
A short description of data set [16]: RP, Waters CORTECS T3, 100 × 2.1 mm, 2.7 µm, 0.1 mL/min, estimated dead time 2.2 min; A: water + 0.1% formic acid, pH 3; B: methanol + 0.1% formic acid, pH 3; gradient (min/%B) 0/0 1/0 6/5 30/100 35/100 35.1/0 40/0.
The nature of data set [17]: RP, Waters CORTECS T3, 100 × 2.1 mm, 2.7 µm, 0.1 mL/min, estimated dead time 2.2 min; A: water + 0.1% formic acid, pH 3; B: methanol + 0.1% formic acid, pH 3; gradient (min/%B) 0/5 5/5 25/95 25.1/100 35/100 35.1/5 45/5.
Data set [18] is described as follows: RP, Waters CORTECS T3, 100 × 2.1 mm, 2.7 µm, 0.2 mL/min, estimated dead time 1.1 min; A: water + 0.1% formic acid, pH 3; B: methanol + 0.1% formic acid, pH 3; gradient (min/%B) 0/0 1/0 6/5 30/100 35/100 35.1/0 40/0. This is another data set of the same source.
Data set [19] in a line: RP, Waters CORTECS T3, 100 × 2.1 mm, 2.7 µm, 0.25 mL/min, estimated dead time 0.88 min; A: water + 0.1% formic acid, pH 3; B: methanol + 0.1% formic acid, pH 3; gradient (min/%B) 0/0 1/0 6/5 30/100 35/100 35.1/0 40/0.
A short description of data set [20]: RP, Waters CORTECS T3, 100 × 2.1 mm, 2.7 µm, 0.3 mL/min, estimated dead time 0.73 min; A: water + 0.1% formic acid, pH 3; B: methanol + 0.1% formic acid, pH 3; gradient (min/%B) 0/5 5/5 25/95 25.1/100 35/100 35.1/5 45/5.
Data set [21] in a line: RP, Waters CORTECS T3, 100 × 2.1 mm, 2.7 µm, 0.3 mL/min, estimated dead time 0.73 min; A: water + 0.1% formic acid, pH 3; B: methanol + 0.1% formic acid, pH 3; gradient (min/%B) 0/0 5/0 25/100 30/100 30.1/0 35/0. This is another data set of the same source.
The nature of data set [22]: RP, Waters CORTECS T3, 100 × 2.1 mm, 2.7 µm, 0.3 mL/min, estimated dead time 0.73 min; A: water + 0.1% formic acid, pH 3; B: methanol + 0.1% formic acid, pH 3; gradient (min/%B) 0/0 1/0 6/5 30/100 35/100 35.1/0 40/0. This is another data set of the same source.
The nature of data set [23]: RP, Waters ACQUITY UPLC BEH C18, 100 × 2.1 mm, 1.7 µm, 0.1 mL/min, estimated dead time 2.2 min; A: water + 0.1% formic acid, pH 3; B: methanol + 0.1% formic acid, pH 3; gradient (min/%B) 0/5 5/5 25/100 30/100 30.1/5 35/5.

This is an account of results in the RepoRT retention time repository (doi:10.1016/j.jchromb.2020.122105).

In the case of `O=c1[nH]cnc2c1ncn2C1OC(CO)C(O)C1O` (centres undefined) [INOSINE], the LC retention time in data set [1] is 10.8 min; in [2] it was 1.41 min; in data set [3], 7.97 min; in [4] it was 3.3 min; in [5] it was 8.42 min; in data set [6], 2.76 min. Further, the LC retention time in data set [7] was 6.93 min; in data set [8], 4.68 min; in data set [9], 5.37 min; in data set [10], 4.88 min; in [11] it was 2.9 min; in data set [12], 8.73 min.

For the compound `Cc1ncc(CO)c(C(=O)O)c1O` [4-PYRIDOXATE], the LC retention time in [1] is 10.4 min; in [2], 3.81 min; in data set [3], 1.28 min; in [13], 4.79 min; in data set [4], 3.4 min; in [5] it was 1.41 min. Also, the LC retention time in data set [6] is 6.57 min; in data set [7], 6.16 min; in [8] it was 4.64 min; in data set [9], 4.57 min; in data set [10] it was 1.15 min; in data set [11], 2.84 min. Moreover, in data set [12], the LC retention time was 1.42 min.

As to `O=C([O-])CCc1ccccc1O` [3-(2-HYDROXYPHENYL)PROPANOATE], the LC retention time in data set [1] was 19.6 min; in [2], 6.28 min; in data set [3] it was 1.75 min; in data set [13], 13.3 min; in [4], 14.4 min; in data set [5] it was 2.27 min. The LC retention time in data set [6] was 18.3 min; in [7] it was 15.9 min; in data set [8], 15.5 min; in data set [9], 14.2 min; in data set [10], 0.87 min; in data set [11], 13.2 min. Besides, the LC retention time in [12] was 1.85 min.

In the case of `N[C@@H](Cc1ccc(O)c([N+](=O)[O-])c1)C(=O)O` [3-NITRO-L-TYROSINE], the LC retention time is 4.34 min in data set [14]; 10.4 min in data set [15]; 12.6 min in data set [1]; 8.03 min in data set [13]; 6.44 min in [4]; 6.31 min in [16]. Moreover, the LC retention time in [17] is 10.8 min; in [18], 8.81 min; in data set [19], 7.83 min; in [20] it was 4.27 min; in data set [5], 10.6 min; in data set [21], 7.98 min. For the same compound, the LC retention time in data set [6] is 10.9 min; in data set [7], 8.96 min; in [8], 8.37 min; in [9], 7.13 min; in data set [10] it was 9.89 min; in [11], 5.25 min. Further, the LC retention time was 11 min in [12], 6.9 min in data set [22] and 10.8 min in data set [23].

As to `O=C(O)CCCCCCCC(=O)O` [AZELAIC ACID], the LC retention time in data set [1] is 21.8 min; in [2] it was 1.41 min; in data set [13], 15.4 min; in data set [4], 16.3 min; in data set [5], 9.72 min; in [6] it was 19.9 min. In addition, the LC retention time in [7] was 18.4 min; in data set [8], 17.6 min; in [9], 16.9 min; in data set [10], 1.1 min; in data set [11], 15.6 min; in data set [12] it was 7.14 min.

In the case of `O=C(O)c1ccc2ccccc2c1[O-]` [1-HYDROXY-2-NAPHTHOATE], the LC retention time in data set [1] is 26.8 min; in data set [2], 14.1 min; in data set [3], 1.05 min; in [13], 19.1 min; in data set [4] it was 21.1 min; in data set [5], 1.27 min. In addition, the LC retention time was 25.1 min in data set [6]; 23.3 min in [7]; 21.9 min in [8]; 21.7 min in [9]; 0.82 min in data set [10]; 19.9 min in data set [11]. Moreover, the LC retention time in data set [12] is 1.33 min.
